Source: ChEMBL document CHEMBL4715775, “Synthesis and structure-activity relationships of 1-benzylindane derivatives as selective agonists for estrogen receptor beta” (Bioorg Med Chem, 2016)

Key:
Estrogen receptor [1] = biological target: T1, Estrogen receptor (Homo sapiens, UniProt P03372)
T1 sequence (P03372 whole entry): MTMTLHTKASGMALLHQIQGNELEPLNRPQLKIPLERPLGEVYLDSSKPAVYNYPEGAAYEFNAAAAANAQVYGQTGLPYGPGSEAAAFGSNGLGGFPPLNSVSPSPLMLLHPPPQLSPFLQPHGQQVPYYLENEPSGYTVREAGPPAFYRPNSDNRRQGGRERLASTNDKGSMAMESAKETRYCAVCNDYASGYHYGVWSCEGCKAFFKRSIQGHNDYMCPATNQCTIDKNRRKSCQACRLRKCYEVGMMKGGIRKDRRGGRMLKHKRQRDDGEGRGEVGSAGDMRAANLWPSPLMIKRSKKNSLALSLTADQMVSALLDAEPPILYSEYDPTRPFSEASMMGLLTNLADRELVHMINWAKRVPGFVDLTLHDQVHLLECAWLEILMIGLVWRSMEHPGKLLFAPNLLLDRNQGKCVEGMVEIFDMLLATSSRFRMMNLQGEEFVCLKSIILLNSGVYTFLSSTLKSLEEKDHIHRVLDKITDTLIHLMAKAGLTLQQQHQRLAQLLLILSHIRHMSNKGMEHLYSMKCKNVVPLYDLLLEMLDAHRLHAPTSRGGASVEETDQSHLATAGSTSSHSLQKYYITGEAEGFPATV
Description: Agonist activity at human ERalpha receptor expressed in HEK293T cells transfected with pGL4.27-(ERE)3-Luc assessed as transcriptional activation measured after 16 hrs by Dual-Glo luciferase assay

Estrogen receptor beta = Estrogen receptor beta (Homo sapiens, UniProt Q92731)
Estrogen receptor beta, sequence (Q92731 whole entry): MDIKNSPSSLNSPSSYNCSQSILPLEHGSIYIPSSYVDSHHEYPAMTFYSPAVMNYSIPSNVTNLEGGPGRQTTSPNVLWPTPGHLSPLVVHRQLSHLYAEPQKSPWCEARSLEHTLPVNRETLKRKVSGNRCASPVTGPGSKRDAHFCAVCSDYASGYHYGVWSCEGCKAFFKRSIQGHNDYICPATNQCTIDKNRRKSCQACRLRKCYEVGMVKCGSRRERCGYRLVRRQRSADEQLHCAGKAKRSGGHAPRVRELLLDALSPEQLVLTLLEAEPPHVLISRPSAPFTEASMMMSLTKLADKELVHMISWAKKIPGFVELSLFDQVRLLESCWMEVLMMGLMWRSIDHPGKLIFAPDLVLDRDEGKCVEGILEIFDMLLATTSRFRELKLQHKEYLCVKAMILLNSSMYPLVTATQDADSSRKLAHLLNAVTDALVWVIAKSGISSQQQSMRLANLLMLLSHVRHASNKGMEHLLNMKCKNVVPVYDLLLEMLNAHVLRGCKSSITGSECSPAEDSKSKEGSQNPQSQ
Description: Agonist activity at human ERbeta receptor expressed in HEK293T cells transfected with pGL4.27-(ERE)3-Luc assessed as transcriptional activation measured after 16 hrs by Dual-Glo luciferase assay

Estrogen receptor [2] = biological target: T1, Estrogen receptor; assay: Agonist activity at human ERalpha receptor expressed in HEK293T cells transfected with pGL4.27-(ERE)3-Luc assessed as transcriptional activation at 10 uM measured after 16 hrs by Dual-Glo luciferase assay relative to 17beta-estradiol; type: cell-based

SMILES	EC50 (Estrogen receptor [1]) [nM]	EC50 (Estrogen receptor beta) [nM]	Activity (Estrogen receptor [2]) [%]
CC1(Cc2ccc(O)cc2)CCc2cc(O)ccc21 (centres undefined)	481	–	–
Oc1cccc(CC2CCc3cc(O)ccc32)c1 (centres undefined)	3090	32.5	–
N#CC1(Cc2ccc(O)cc2Cl)CCc2cc(O)ccc21 (centres undefined)	–	0.05	–
N#CC1(Cc2ccc(O)c(Cl)c2)CCc2cc(O)ccc21 (centres undefined)	–	11.6	7
CCC1(Cc2ccc(O)cc2)CCc2cc(O)ccc21 (centres undefined)	116	0.36	–
Cc1cc(CC2(C#N)CCc3cc(O)ccc32)ccc1O (centres undefined)	–	10.7	2
CCC(Cc1ccc(O)cc1)c1ccc(O)cc1 (centres undefined) [ISOBUTESROL]	185	0.23	–
Oc1ccc(CC2CCCc3cc(O)ccc32)cc1 (centres undefined)	102	0.18	–
Oc1ccc(CCc2ccc(O)cc2)cc1	–	–	47
N#CC1(Cc2ccc(O)cc2)CCc2cc(O)ccc21 (racemic)	2790	–	–
N#CCC1(Cc2ccc(O)cc2)CCc2cc(O)ccc21 (centres undefined)	–	3.05	–
Oc1ccc(CC2CCCCc3cc(O)ccc32)cc1 (centres undefined)	123	0.15	–
N#CC1(Cc2ccc(O)c(F)c2)CCc2cc(O)ccc21 (centres undefined)	1820	0.91	–
CCCC1(Cc2ccc(O)cc2)CCc2cc(O)ccc21 (centres undefined)	169	–	–
CCC(c1ccc(O)cc1)C1CCc2cc(O)ccc21 (centres undefined)	–	0.1	–

Next, values leading:

EC50 (Estrogen receptor [1]) [nM]	EC50 (Estrogen receptor beta) [nM]	Activity (Estrogen receptor [2]) [%]	SMILES
2410	–	–	N#C[C@@]1(Cc2ccc(O)cc2)CCc2cc(O)ccc21
256	0.15	–	N#CC1(Cc2ccc(O)cc2F)CCc2cc(O)ccc21 (centres undefined)
2110	25.9	–	Oc1ccc(CC2CCc3ccc(O)cc32)cc1 (centres undefined)
–	6.59	42	CCCCC1(Cc2ccc(O)cc2)CCc2cc(O)ccc21 (centres undefined)
3020	–	–	N#C[C@]1(Cc2ccc(O)cc2)CCc2cc(O)ccc21
950	0.48	–	Cc1cc(O)ccc1CC1(C#N)CCc2cc(O)ccc21 (centres undefined)
–	72.4	–	Oc1ccc(CC2CCc3c(O)cccc32)cc1 (centres undefined)
